The target in experiment [1] is T1, MAGL (Mus musculus, UniProt O35678).
T1 construct: from tissue; host or cells: brain of wild-type C57Bl/6J mice
T1 sequence (O35678 1-303): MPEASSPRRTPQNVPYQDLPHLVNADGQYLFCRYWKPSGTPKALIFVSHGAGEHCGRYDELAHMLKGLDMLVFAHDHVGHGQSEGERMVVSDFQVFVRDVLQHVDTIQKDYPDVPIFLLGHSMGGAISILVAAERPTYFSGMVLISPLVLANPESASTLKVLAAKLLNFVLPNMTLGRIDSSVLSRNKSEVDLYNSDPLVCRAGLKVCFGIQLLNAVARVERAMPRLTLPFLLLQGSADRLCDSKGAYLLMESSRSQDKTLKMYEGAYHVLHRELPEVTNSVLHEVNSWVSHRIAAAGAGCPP
The experiment in a line: Mouse brain proteomes from inhibitor treated mice (oral gavage, brain proteomes analyzed 4 h after administration). Format: in vivo, mouse (C57Bl/6J). The settings on record: brain proteome 4 h after administration, read-out: % Inh 5 mg/kg MGLL (Mouse). An outline of the steps:
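Wild-type C57Bl/6J mice dosed orally in polyethylene glycol vehicle; brains removed 4 h post-dose and brain proteomes prepared and analysed for MAGL and serine hydrolase activity by previously established methods.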

In experiment [2] the target is T2, MGLL (Mus musculus, UniProt O35678).
T2 construct: Brain; from tissue; host or cells: mouse brain proteome
T2 sequence (O35678 1-303): T1 sequence (O35678 1-303)
In words: In vitro competitive activity-based protein profiling, mouse brain proteome. It counts as biochemical. As to the method: [Worded in the source for another species; this species is reported under the same test.] (§1) Proteomes (human prefrontal cortex or cell membrane fractions) (50 μL, 1.0 mg/mL total protein concentration) were preincubated with varying concentrations of inhibitors at 37° C. After 30 min, FP—Rh or HT-01 (1.0 μL, 50 μM in DMSO) was added and the mixture was incubated for another 30 min at room temperature. Reactions were quenched with SDS loading buffer (15 μL-4×) and run on SDS-PAGE.

Experiment [3] concerns the target T3, ABHD6 (Mus musculus, UniProt Q8R2Y0).
T3 construct: Brain; from tissue; host or cells: mouse brain proteome
T3 sequence (Q8R2Y0 1-336): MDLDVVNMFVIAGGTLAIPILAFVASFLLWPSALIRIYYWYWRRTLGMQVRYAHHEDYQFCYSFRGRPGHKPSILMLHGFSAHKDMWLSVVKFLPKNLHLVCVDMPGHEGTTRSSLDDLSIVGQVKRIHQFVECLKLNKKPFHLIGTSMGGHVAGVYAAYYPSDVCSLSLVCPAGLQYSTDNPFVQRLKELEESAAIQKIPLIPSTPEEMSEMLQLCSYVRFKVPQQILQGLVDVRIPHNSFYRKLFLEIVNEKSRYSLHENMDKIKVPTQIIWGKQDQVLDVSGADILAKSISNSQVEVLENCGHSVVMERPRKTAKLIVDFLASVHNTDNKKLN
In words: In vitro competitive activity-based protein profiling, mouse brain proteome, ABHD6. It counts as biochemical. The settings on record: mouse. As to the method:
[Worded in the source for another target; this target is reported under the same test.] as §1

In the case of `O=C(OC(C(F)(F)F)C(F)(F)F)N1CCC2(CC1)CN(Cc1c(N3CC4COCC4C3)cccc1C(F)(F)F)C2` (stereo not drawn) [Example 32, 1,1,1,3,3,3-Hexafluoropropan-2-yl 2-(2-(tetrahydro-1H-furo[3,4-c]pyrrol-5(3H)-yl)-6-(trifluoromethyl)benzyl)-2,7-diazaspiro[3.5]nonane-7-carboxylate], the inhibition at 5 mg/kg in experiment [1] is at least 75%. The half-maximal inhibitory concentration (IC50) (usually the concentration that gives 50% inhibition) in experiment [2] was under 100 nM; in experiment [3], over 1000 nM.
As for `O=C(OC(C(F)(F)F)C(F)(F)F)N1CCC2(CC1)CN(Cc1ccc(Cl)cc1N1CCOCC1)C2` [Example 39, 1,1,1,3,3,3-Hexafluoropropan-2-yl 2-(4-chloro-2-morpholinobenzyl)-2,7-diazaspiro[3.5]nonane-7-carboxylate], the inhibition at 5 mg/kg in experiment [1] is at least 75%. The IC50 was under 100 nM in experiment [2] and 100 to 1000 nM in experiment [3].
In the case of `O=C(OC(C(F)(F)F)C(F)(F)F)N1CCC2(CC1)CN(Cc1c(N3CCCCC3)cccc1C(F)(F)F)C2` [Example 41, 1,1,1,3,3,3-Hexafluoropropan-2-yl 2-(2-(piperidin-1-yl)-6-(trifluoromethyl)benzyl)-2,7-diazaspiro[3.5]nonane-7-carboxylate], the inhibition at 5 mg/kg in experiment [1] is at least 75%. The IC50 in experiment [2] was under 100 nM; in experiment [3], over 1000 nM.
As to `CS(=O)(=O)N1CCN(c2cccc(Cl)c2CN2CC3(CCN(C(=O)OC(C(F)(F)F)C(F)(F)F)CC3)C2)CC1` [Example 44, 1,1,1,3,3,3-Hexafluoropropan-2-yl 2-(2-chloro-6-(4-(methylsulfonyl)piperazin-1-yl)benzyl)-2,7-diazaspiro[3.5]nonane-7-carboxylate], in experiment [1], the inhibition at 5 mg/kg is at least 75%. In addition, the IC50 in experiment [2] and in experiment [3] was under 100 nM in each case.
For `O=C(OC(C(F)(F)F)C(F)(F)F)N1CCC2(CC1)CN(Cc1c(Cl)cccc1N1CCCCC1)C2` [Example 45, 1,1,1,3,3,3-Hexafluoropropan-2-yl 2-(2-chloro-6-(piperidin-1-yl)benzyl)-2,7-diazaspiro[3.5]nonane-7-carboxylate], in experiment [1], the inhibition at 5 mg/kg is at least 75%. In addition, the IC50 in experiment [2] and in experiment [3] was under 100 nM in each case.
In the case of `O=C(OC(C(F)(F)F)C(F)(F)F)N1CCC2(CC1)CN(Cc1c(Cl)cccc1N1CCOCC1)C2` [Example 46, 1,1,1,3,3,3-Hexafluoropropan-2-yl 2-(2-chloro-6-morpholinobenzyl)-2,7-diazaspiro[3.5]nonane-7-carboxylate], the inhibition at 5 mg/kg in experiment [1] was at least 75%. In addition, the IC50 in experiment [2] and in experiment [3] was under 100 nM each time.
In the case of `CC(=O)N1CCN(c2cccc(Cl)c2CN2CC3(CCN(C(=O)OC(C(F)(F)F)C(F)(F)F)CC3)C2)CC1` [Example 49, 1,1,1,3,3,3-Hexafluoropropan-2-yl 2-(2-(4-acetylpiperazin-1-yl)-6-chlorobenzyl)-2,7-diazaspiro[3.5]nonane-7-carboxylate], in experiment [1], the inhibition at 5 mg/kg was at least 75%. The IC50 in experiment [2] and in experiment [3] was under 100 nM throughout.
With `CCN1CCN(c2cccc(Cl)c2CN2CC3(CCN(C(=O)OC(C(F)(F)F)C(F)(F)F)CC3)C2)CC1` [Example 50, 1,1,1,3,3,3-Hexafluoropropan-2-yl 2-(2-chloro-6-(4-ethylpiperazin-1-yl)benzyl)-2,7-diazaspiro[3.5]nonane-7-carboxylate], the inhibition at 5 mg/kg in experiment [1] is at most 25%. For the same compound, the IC50 in experiment [2] was under 100 nM; in experiment [3] it was 100 to 1000 nM.
In the case of `O=C(OC(C(F)(F)F)C(F)(F)F)N1CCC2(CC1)CN(Cc1c(N3CCC(F)CC3)cccc1C(F)(F)F)C2` [Example 51, 1,1,1,3,3,3-Hexafluoropropan-2-yl 2-(2-(4-fluoropiperidin-1-yl)-6-(trifluoromethyl)benzyl)-2,7-diazaspiro[3.5]nonane-7-carboxylate], in experiment [1], the inhibition at 5 mg/kg was at least 75%. Also, the figures for the 50% inhibitory concentration (IC50) in experiment [2] and in experiment [3] were under 100 nM and over 1000 nM, respectively.
For `O=C(OC(C(F)(F)F)C(F)(F)F)N1CCC2(CC1)CN(Cc1c(N3CCC4(CCOCC4)C3)cccc1C(F)(F)F)C2` [Example 52, 1,1,1,3,3,3-Hexafluoropropan-2-yl 2-(2-(8-oxa-2-azaspiro[4.5]decan-2-yl)-6-(trifluoromethyl)benzyl)-2,7-diazaspiro[3.5]nonane-7-carboxylate], in that order: at least 75%, under 100 nM and 100 to 1000 nM.
The like results for `CS(=O)(=O)N1CCN(c2cccc(C(F)(F)F)c2CN2CC3(CCN(C(=O)OC(C(F)(F)F)C(F)(F)F)CC3)C2)CC1` [Example 53, 1,1,1,3,3,3-Hexafluoropropan-2-yl 2-(2-(4-(methylsulfonyl)piperazin-1-yl)-6-(trifluoromethyl)benzyl)-2,7-diazaspiro[3.5]nonane-7-carboxylate] were, in that order, at least 75%, under 100 nM and 100 to 1000 nM.
Take `CCN1CCN(c2cccc(C(F)(F)F)c2CN2CC3(CCN(C(=O)OC(C(F)(F)F)C(F)(F)F)CC3)C2)CC1` [Example 54, 1,1,1,3,3,3-Hexafluoropropan-2-yl 2-(2-(4-ethylpiperazin-1-yl)-6-(trifluoromethyl)benzyl)-2,7-diazaspiro[3.5]nonane-7-carboxylate]: the inhibition at 5 mg/kg in experiment [1] is at most 25%. Moreover, the IC50 in experiment [2] was under 100 nM; in experiment [3] it was over 1000 nM.
The like results for `O=C(OC(C(F)(F)F)C(F)(F)F)N1CCC2(CC1)CN(Cc1c(Cl)cccc1N1CC3COCC3C1)C2` (stereo not drawn) [Example 57, 1,1,1,3,3,3-Hexafluoropropan-2-yl 2-(2-chloro-6-(tetrahydro-1H-furo[3,4-c]pyrrol-5(3H)-yl)benzyl)-2,7-diazaspiro[3.5]nonane-7-carboxylate] were, in that order, at least 75%, under 100 nM and 100 to 1000 nM.
For `O=C(OC(C(F)(F)F)C(F)(F)F)N1CCC2(CC1)CN(Cc1c(Cl)cccc1N1CCN(C3CC3)CC1)C2` [Example 58, 1,1,1,3,3,3-Hexafluoropropan-2-yl 2-(2-chloro-6-(4-cyclopropylpiperazin-1-yl)benzyl)-2,7-diazaspiro[3.5]nonane-7-carboxylate], in that order: at least 75%, under 100 nM and 100 to 1000 nM.
As for `CC(=O)N1CCN(c2cccc(C(F)(F)F)c2CN2CC3(CCN(C(=O)OC(C(F)(F)F)C(F)(F)F)CC3)C2)CC1` [Example 59, 1,1,1,3,3,3-Hexafluoropropan-2-yl 2-(2-(4-acetylpiperazin-1-yl)-6-(trifluoromethyl)benzyl)-2,7-diazaspiro[3.5]nonane-7-carboxylate], in experiment [1], the inhibition at 5 mg/kg is at least 75%. The figures for the IC50 in experiment [2] and in experiment [3] were under 100 nM and 100 to 1000 nM, respectively.
For `O=C(OC(C(F)(F)F)C(F)(F)F)N1CCC2(CC1)CN(Cc1c(N3CCN(C4CC4)CC3)cccc1C(F)(F)F)C2` [Example 60, 1,1,1,3,3,3-Hexafluoropropan-2-yl 2-(2-(4-cyclopropylpiperazin-1-yl)-6-(trifluoromethyl)benzyl)-2,7-diazaspiro[3.5]nonane-7-carboxylate], in that order: at least 75%, under 100 nM and over 1000 nM.

Values taken from patent US20210214375A1 (LUNDBECK LA JOLLA RESEARCH CENTER, INC., priority 2017, published 2021).
